Reference: US5453518A, “Flavone derivatives” (Recordati S.A., Chemical and Pharmaceutical Company, priority 1992, dated 1995)
pIC50: −log10 of the molar value. Read-outs that look alike come from different tables or passages of the source.

Experiments:
[1] = test system: rat bladder (K^+ -induced contractions); test: Inhibition of K^+ -induced rat bladder contractions; parameters: species or system rat (male Sprague Dawley); conditions: 0.5 h, KCl 80 mM, 30 min after drug, isolated rat bladder
Procedure: Female Albino Swiss mice [Crl: CD-1 (ICR) BR] with a body weight of 20-30 g and male Sprague Dawley rats [Crl: CD° BR] with a body weight of 200-300 g, from the Charles River Farm, Italy, were used for the trials. The animals were housed with free access to food and water and kept on a forced light-darkness cycle at 22°-24° C. until the day of the trials. Male rats were killed by a blow on their heads and their lower abdomens were opened along the midlines. Their urinary bladders were removed by a transverse dissection above the trigone and cut into two fragments (20-30 mm long, 1-2 mm wide). Each fragment was suspended in an isolated organ bath containing 10 ml of a normal Tyrode solution (composition in mM: NaCl 137, KCl 2.68, MgCl2 1.11, CaCl2 1.8, NaH2 PO4 0.41, NaHCO3 11.9, glucose 5.55) and connected, under a steady 1 g load, to an isometric transducer (DY-1, Basile). The solution was gassed with a mixture of 95% O2 and 5% CO2 and heated at 37° C. After a 60 minute equilibration the tension responses to a single KCl dose (Bath concentration=80 mM) inducing phasic and tonic contractions were measured under isometric conditions at 30 minute intervals. After recording one or more reproducible responses, a solution of the test drug was added to the bath (final concentration from 10^-4 to 10^-9 M) and 30 minutes later a new contraction was induced. The experimental groups were made up of at least 2 preparations from different animals for each drug concentration tested. The IC50 values of the inhibition of the agonist-induced contractions were evaluated by linear regression analysis.

[2] = in words, background; cited from earlier work
[3] = in words, background; cited from earlier work; remark: listed apart in the source

pIC50 ([1]; phasic contraction, read-out: IC50, inhibition of K^+ -induced rat bladder contractions, Phasic): 4.89 | pIC50 ([1]; tonic contraction, read-out: IC50, inhibition of K^+ -induced rat bladder contractions, Tonic): 4.89
SMILES: Cc1c(-c2ccccc2)oc2c(C(=O)OCCN3CCCCC3)cccc2c1=O [Flavoxate, 8-(2-(N-piperidino)ethoxycarbonyl)-3-methyl-4-oxo-2-phenyl-4H-1-benzopyran, reference compound]
stability in physiological fluids [2]: low stability in physiological fluids | anticholinergic effects [3]: practical absence of anticholinergic effects
